# Structures can show the parent of a compound that is named as a salt.
# What was measured:
# [1] = system: Citrobacter freundii 1982; assay: MIC in vitro of a 1:4 combination of ceftriaxone with a compound of formula I (Test D); type: cell-based; settings: for MIC C. freundii 1982: Table 2; for MIC C. freundii 1982 (D): test D
# Experimental: The minimum inhibitory concentration in vitro ([…]) of a 1:4 combination of ceftriaxone with a compound of formula I against Citrobacter freundii 1982 was measured and compiled in Table 2 hereinafter.
# E. coli 1346 = assay: Antibacterial activity of the products per se, serial dilution method in liquid medium (Test E); type: cell-based; settings: product per se; for MIC E. coli 1346: Table 3, liquid medium; for MIC E. coli 1346 (E): test E
# Description: The antibacterial activity of the products per se is illustrated on the basis of Table 3 hereinafter, the minimum inhibitory concentration […] in vitro against E. coli 1346 being determined using the serial dilution method in liquid medium: […]
# [2] = 1:4 combination of ceftriaxone with the compound
# [3] = Table 4, 1:4 combination of ceftriaxone with the compound
Structure (SMILES),"MIC C. freundii 1982 [1, 2]",MIC E. coli 1346 (E. coli 1346),"MIC C. freundii 1982 (D) [1, 3]",MIC E. coli 1346 (E) (E. coli 1346; Table 4),"MIC C. freundii 1982 (D) ([1]; Table 5, particularly preferred products, 1:4 combination with ceftriaxone)","MIC E. coli 1346 (E) (E. coli 1346; Table 5, particularly preferred products)"
"CS(=O)(=O)OC1=C(C(=O)O)N2C(=O)[C@@H]3[C@H]2[C@H](C1)CN3C(=O)NC1CCSC1=O (mixture of isomers) [9(f), (1aS,3aR,6bR)-5-Methylsulphonyloxy-1-oxo-2-[(R) and [(S)-2-oxo-tetrahydro-thien-3-ylcarbamoyl]-1a,2,3,3a,4,6b-hexahydro-1H-2,6a-diazacyclobut[cd]indene-6-carboxylic acid sodium salt]",0.12 µg/mL,32 µg/mL,–,–,–,–
"CC(=O)N1C[C@H]2CC(Sc3nnc(C)s3)=C(C(=O)O)N3C(=O)[C@@H]1[C@@H]23 [3(ac), (1aS,3aR,6bR)-2-Acetyl-5-(5-methyl-1,3,4-thiadiazol-2-ylsulphanyl)-1-oxo-1a,2,3,3a,4,6b-hexahydro-1H-2,6a-diazacyclobut[cd]indene-6-carboxylic acid sodium salt]",–,–,4 µg/mL,8 µg/mL,–,–
"CC(=O)N1C[C@H]2CC(Sc3nnc(N)s3)=C(C(=O)O)N3C(=O)[C@@H]1[C@@H]23 [3(ae), (1aS,3aR,6bR)-2-Acetyl-5-(5-amino-1,3,4-thiadiazol-2-ylsulphanyl)-1-oxo-1a,2,3,3a,4,6b-hexahydro-1H-2,6a-diazacyclobut[cd]indene-6-carboxylic acid sodium salt]",–,–,4 µg/mL,4 µg/mL,–,–
"N#CCC(=O)N1C[C@H]2CC(Sc3nnc(N)s3)=C(C(=O)O)N3C(=O)[C@@H]1[C@@H]23 [3(ag), (1aS,3aR,6bR)-5-(5-Amino-1,3,4-thiadiazol-2-ylsulphanyl)-2-cyanoacetyl-1-oxo-1a,2,3,3a,4,6b-hexahydro-1H-2,6a-diazacyclobut[cd]indene-6-carboxylic acid sodium salt]",–,–,2 µg/mL,8 µg/mL,–,–
"O=C(O)C1=C(Sc2ccncc2)C[C@@H]2CN(C(=O)C(F)(F)F)[C@@H]3C(=O)N1[C@H]23 [3(ai), (1aS,3aR,6bR)-1-Oxo-5-(pyridin-4-ylsulphanyl)-2-trifluoracetyl-1a,2,3,3a,4,6b-hexahydro-1H-2,6a-diazacyclobut[cd]indene-6-carboxylic acid sodium salt]",–,–,32 µg/mL,> 32 µg/mL,–,–
"CC(=O)N1C[C@H]2CC(SCC(N)=O)=C(C(=O)O)N3C(=O)[C@@H]1[C@@H]23 [3(ak), (1 aS,3aR,6bR)-2-Acetyl-5-carbamoylmethylsulphanyl-1-oxo-1a,2,3,3a,4,6b-hexahydro-1H-2,6a-diazacyclobut[cd]indene-6-carboxylic acid sodium salt]",–,–,4 µg/mL,16 µg/mL,–,–
"NC(=O)CSC1=C(C(=O)O)N2C(=O)[C@@H]3[C@H]2[C@H](C1)CN3C(=O)C(F)(F)F [3(al), (1aS,3aR,6bR)-5-Carbamoylmethylsulphanyl-1-oxo-2-trifluoroacetyl-1a,2,3,3a,4,6b-hexahydro-1H-2,6a-diazacyclobut[cd]indene-6-carboxylic acid sodium salt]",–,–,2 µg/mL,8 µg/mL,–,–
"Cn1nc[n+](C)c1CSC1=C(C(=O)[O-])N2C(=O)[C@@H]3[C@H]2[C@H](C1)CN3C(=O)C(F)(F)F [3(an), (1aS,3aR,6bR)-5-[(1,4-Dimethyl-1H-1,2,4-triazol-5-ylio)methylsulphanyl]-1-oxo-2-trifluoroacetyl-1a,2,3,3a,4,6b-hexahydro-1H-2,6a-diazacyclobut[cd]indene-6-carboxylate]",–,–,32 µg/mL,32 µg/mL,–,–
"CC(=O)N1C[C@H]2CC(SCc3n(C)nc[n+]3C)=C(C(=O)[O-])N3C(=O)[C@@H]1[C@@H]23 [3(ao), (1aS,3aR,6bR)-2-Acetyl-5-[(1,4-dimethyl-1H-1,2,4-triazol-5-ylio)-methylsulphanyl]-1-oxo-1a,2,3,3a,4,6b-hexahydro-1H-2,6a-diazacyclobut[cd]indene-6-carboxylate]",–,–,8 µg/mL,> 32 µg/mL,–,–
"Cn1nnnc1SC1=C(C(=O)O)N2C(=O)[C@@H]3[C@H]2[C@H](C1)CN3C(=O)NCc1cccs1 [3(d), (1aS,3aR,6bR)-5-(1-Methyl-1H-tetrazol-5-ylsulphanyl)-1-oxo-2-(thien-2-ylmethylcarbamoyl)-1a,2,3,3a,4,6b-hexahydro-1H-2,6a-diazacyclobut[cd]indene-6-carboxylic acid sodium salt]",1 µg/mL,32 µg/mL,–,–,–,–
"Cn1nnnc1SC1=C(C(=O)O)N2C(=O)[C@@H]3[C@H]2[C@H](C1)CN3C(=O)NCc1ccc(O)c(O)c1 [3(e), (1aS,3aR,6bR)-2-(3,4-Dihydroxy-benzylcarbamoyl)-5-(1-methyl-1H-tetrazol-5-ylsulphanyl)-1-oxo-1a,2,3,3a,4,6b-hexahydro-1H-2,6a-diazacyclobut[cd]indene-6-carboxylic acid salt]",2 µg/mL,32 µg/mL,–,–,–,–
"Cn1nnnc1SC1=C(C(=O)O)N2C(=O)[C@@H]3[C@H]2[C@H](C1)CN3C(=O)NCc1ccc(S(N)(=O)=O)cc1 [3(g), (1aS,3aR,6bR)-5-(1-Methyl-1H-tetrazol-5-ylsulphanyl)-1-oxo-2-(4-sulphamoyl-benzylcarbamoyl)-1a,2,3,3a,4,6b-hexahydro-1H-2,6a-diazacyclobut[cd]indene-6-carboxylic acid sodium salt]",0.5 µg/mL,16 µg/mL,–,–,–,–
"COc1cc(CNC(=O)N2C[C@H]3CC(Sc4nnnn4C)=C(C(=O)O)N4C(=O)[C@@H]2[C@@H]34)on1 [3(h), (1aS,3aR,6bR)-2-(3-Methoxy-isoxazol-5-ylmethylcarbamoyl)-5-(1-methyl-1H-tetrazol-5-ylsulphanyl)-1-oxo-1a,2,3,3a,4,6b-hexahydro-1H-2,6a-diazacyclobut[cd]indene-6-carboxylic acid sodium salt]",2 µg/mL,16 µg/mL,–,–,–,–
"Nc1nnc(SC2=C(C(=O)O)N3C(=O)[C@@H]4[C@H]3[C@H](C2)CN4C(=O)Nc2ccc(O)cc2)s1 [3(l), (1aS,3aR,6bR)-5-(5-Amino-1,3,4-thiadiazol-2-ylsulphanyl)-2-(4-hydroxyphenylcarbamoyl)-1-oxo-1a,2,3,3a,4,6b-hexahydro-1H-2,6a-diazacyclobut[cd]indene-6-carboxylic acid sodium salt]",0.5 µg/mL,8 µg/mL,–,–,0.5 µg/mL,8 µg/mL
"NC(=O)c1ccc(NC(=O)N2C[C@H]3CC(Sc4ccncc4)=C(C(=O)O)N4C(=O)[C@@H]2[C@@H]34)cc1 [3(n), (1aS,3aR,6bR)-2-(4-Carbamoyl-phenylcarbamoyl)-1-oxo-5-(pyridin-4-ylsulphanyl)-1a,2,3,3a,4,6b-hexahydro-1H-2,6a-diazacyclobut[cd]indene-6-carboxylic acid sodium salt]",–,–,1 µg/mL,> 32 µg/mL,–,–
"O=C(O)C1=C(Sc2ccncc2)C[C@@H]2CN(C(=O)Nc3ccc(O)cc3)[C@@H]3C(=O)N1[C@H]23 [3(o), (1aS,3aR,6bR)-2-(4-Hydroxy-phenylcarbamoyl)-1-oxo-5-(pyridin-4-ylsulphanyl)-1a,2,3,3a,4,6b-hexahydro-1H-2,6a-diazacyclobut[cd]indene-6-carboxylic acid sodium salt]",–,–,1 µg/mL,> 32 µg/mL,–,–
